# Target: T1, cloned human dopamine D3 receptors (Homo sapiens, UniProt P35462)
# T1 construct: expressed in transfected cells; membrane homogenate
# Assay: [N-Methyl-3H]Spiroperidol binding to cloned human dopamine D3 receptors
# Conditions: read-out: D3 Ki
# Summary of the method: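 Stably transfected CHO cells expressing cloned human D3 receptor were used as membranes homogenized in 10% DMSO. Ligand was [N-methyl-3H]spiroperidol displacement.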
# T1 sequence (P35462 whole entry): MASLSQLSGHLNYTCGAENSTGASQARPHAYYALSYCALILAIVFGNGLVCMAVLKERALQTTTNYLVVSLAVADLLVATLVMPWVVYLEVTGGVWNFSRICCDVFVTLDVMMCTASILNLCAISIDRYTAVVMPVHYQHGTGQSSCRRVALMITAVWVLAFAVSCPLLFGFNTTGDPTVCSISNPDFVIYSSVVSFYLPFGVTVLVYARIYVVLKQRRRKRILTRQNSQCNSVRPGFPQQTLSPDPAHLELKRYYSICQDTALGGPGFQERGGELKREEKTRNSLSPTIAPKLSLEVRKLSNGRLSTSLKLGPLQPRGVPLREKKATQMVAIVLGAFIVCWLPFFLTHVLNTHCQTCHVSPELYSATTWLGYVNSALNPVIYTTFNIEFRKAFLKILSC
row,SMILES,Ki [nM]
1,CC(C)N1CCN(C(=O)[C@@H]2C[C@H]2CN2CCN(c3csc4cc(C(F)(F)F)ccc34)CC2)CC1 [compound 832833],18.2
2,C=CCN1CCN(C(=O)[C@@H]2C[C@H]2CN2CCN(c3csc4cc(C(F)(F)F)ccc34)CC2)CC1 [compound 832834],12.2
3,COCCN1CCN(C(=O)[C@@H]2C[C@H]2CN2CCN(c3csc4cc(C(F)(F)F)ccc34)CC2)CC1 [compound 832835],18.1
4,O=C(NCc1cccc(OC(F)(F)F)c1)[C@@H]1C[C@H]1CN1CCN(c2csc3cc(C(F)(F)F)ccc23)CC1 [compound 833062],55.4
5,Cn1nc(C2CCN(C[C@@H]3C[C@H]3C(=O)N[C@H]3CC[C@H](O)CC3)CC2)c2cccc(C(F)(F)F)c21 [compound 833080],22.9
6,Cn1nc(C2CCN(C[C@@H]3C[C@H]3C(=O)N3CCC(N4CCCCC4)CC3)CC2)c2cccc(C(F)(F)F)c21 [compound 833091],118
7,Cn1nc(C2CCN(C[C@@H]3C[C@H]3C(=O)NCCCc3cccnc3)CC2)c2cccc(C(F)(F)F)c21 [compound 833092],33.5
8,O=C([C@@H]1C[C@H]1CN1CCN(c2csc3cc(C(F)(F)F)ccc23)CC1)N1CCC[C@@H](Cn2ccnc2)C1 [compound 833097],0.9
9,COc1ccc2c(c1)c(N1CCN(C[C@@H]3C[C@H]3C(=O)NCCCN3CCCCC3)CC1)nn2C [compound 833120],138
10,COc1ccc2c(c1)c(N1CCN(C[C@@H]3C[C@H]3C(=O)N3CCN(C(C)C)CC3)CC1)nn2C [compound 833122],52.9
11,COc1ccc2c(c1)c(N1CCN(C[C@@H]3C[C@H]3C(=O)N3CCC(n4ccnc4)CC3)CC1)nn2C [compound 833123],26.3
12,COc1ccc2c(c1)c(N1CCN(C[C@@H]3C[C@H]3C(=O)N3CCN(Cc4ccc(Cl)cc4)CC3)CC1)nn2C [compound 833124],26.8
13,COc1ccc2c(c1)c(N1CCN(C[C@@H]3C[C@H]3C(=O)N3CCN(Cc4ccc(C)cc4)CC3)CC1)nn2C [compound 833125],70.8
14,COc1ccc2c(c1)c(N1CCN(C[C@@H]3C[C@H]3C(=O)NCC3CCNCC3)CC1)nn2C [compound 833136],14.3
15,CC(C)(C)C(=O)O[C@H]1CC[C@H](NC(=O)[C@@H]2C[C@H]2CN2CCC(c3csc4c(C(F)(F)F)cccc34)CC2)CC1 [compound 833151],11.2
16,O=C(NCCCN1CCCCC1)[C@@H]1C[C@H]1CN1CCC(c2nn(-c3ccc(F)cc3)c3cc(F)ccc23)CC1 [compound 833157],43.9
17,COc1ccc2c(c1)c(N1CCN(C[C@@H]3C[C@H]3C(=O)NCC3CCN(C(C)=O)CC3)CC1)nn2C [compound 833197],45.4
18,CC(C)(C)OC(=O)N1CCN(CCNC(=O)[C@@H]2C[C@H]2CN2CCN(c3csc4cc(C(F)(F)F)ccc34)CC2)CC1 [compound 833277],16.7
19,CC(C)(C)OC(=O)NCCN1CCN(C(=O)[C@@H]2C[C@H]2CN2CCN(c3csc4cc(C(F)(F)F)ccc34)CC2)CC1 [compound 833278],7.04
20,O=C(NCCN1CCNCC1)[C@@H]1C[C@H]1CN1CCN(c2csc3cc(C(F)(F)F)ccc23)CC1 [compound 833322],12.8
21,NCCN1CCN(C(=O)[C@@H]2C[C@H]2CN2CCN(c3csc4cc(C(F)(F)F)ccc34)CC2)CC1 [compound 833323],3.46
22,O=C(NCCCn1ccnc1)[C@@H]1C[C@H]1CN1CCN(c2nn(-c3ccc(OC(F)(F)F)cc3)c3ccsc23)CC1 [compound 833333],8.11
23,COc1c(F)ccc2c(C3CCN(CCC4(C(=O)NCCCn5ccnc5)CC4)CC3)noc12 [compound 833378],23.7
24,O=C(NCCCN1CCCCC1)C1(CCN2CCN(c3csc4cc(C(F)(F)F)ccc34)CC2)CC1 [compound 833475],22.4
25,O=C([C@@H]1C[C@H]1CN1CCN(c2csc3cc(C(F)(F)F)ccc23)CC1)N1CCC(n2ccnc2)CC1 [compound 833513],43.1
26,O=C([C@@H]1C[C@H]1CN1CCN(c2csc3cc(C(F)(F)F)ccc23)CC1)N1CCC(CCN2CCCC2)CC1 [compound 833514],0.36
27,O=C(NCc1ccc(-c2csnn2)cc1)[C@@H]1C[C@H]1CN1CCN(c2csc3cc(C(F)(F)F)ccc23)CC1 [compound 833515],48.3
28,COc1ccc2c(c1)c(N1CCN(C[C@@H]3C[C@H]3C(=O)NCCc3ccc(F)cc3)CC1)nn2C [compound 833629],2.69
29,COc1ccc2c(c1)c(N1CCN(C[C@@H]3C[C@H]3C(=O)NC[C@@H]3CCNC3)CC1)nn2C [compound 833632],4.06

# More lines, now with the values ahead:
row,Ki [nM],SMILES
1,3.05,Cc1cccc(CN2CCC(NC(=O)[C@@H]3C[C@H]3CN3CCN(c4csc5cc(C(F)(F)F)ccc45)CC3)CC2)c1 [compound 832789]
2,2.57,O=C(N[C@H]1CC[C@H](O)CC1)[C@@H]1C[C@H]1CN1CCN(c2nn(-c3ccccc3)c3ccsc23)CC1 [compound 832816]
3,1.12,C[C@H]1CC[C@H](NC(=O)[C@@H]2C[C@H]2CN2CCN(c3nn(-c4ccccc4)c4ccsc34)CC2)CC1 [compound 832849]
4,0.264,C[C@H]1CC[C@H](NC(=O)[C@@H]2C[C@H]2CN2CCN(c3nn(-c4ccc(F)cc4)c4ccsc34)CC2)CC1 [compound 832850]
5,14.3,O=C(NCC1CCNCC1)[C@@H]1C[C@H]1CN1CCN(c2csc3cc(C(F)(F)F)ccc23)CC1 [compound 832859]
6,37.9,C[C@H]1CC[C@H](NC(=O)[C@@H]2C[C@H]2CN2CCN(c3nn(-c4ccc(C(F)(F)F)cc4)c4ccsc34)CC2)CC1 [compound 832881]
7,692,CC(=O)N1CCC(CNC(=O)[C@@H]2C[C@H]2CN2CCN(c3csc4cc(C(F)(F)F)ccc34)CC2)CC1 [compound 833065]
8,8.84,O=C([C@@H]1C[C@H]1CN1CCN(c2csc3cc(C(F)(F)F)ccc23)CC1)N1CCC[C@H](Cn2ccnc2)C1 [compound 833098]
9,79.6,CC(C)N1CCN(C(=O)[C@@H]2C[C@H]2CN2CCC(c3noc4ccsc34)CC2)CC1 [compound 833127]
10,26.7,O=C([C@@H]1C[C@H]1CN1CCC(c2noc3ccsc23)CC1)N1CCN(Cc2ccc(Cl)cc2)CC1 [compound 833128]
11,95.3,CC(C)(C)c1ccc(CCNC(=O)[C@@H]2C[C@H]2CN2CCC(c3noc4ccsc34)CC2)cc1 [compound 833129]
12,8.85,O=C(NCCc1cccc(C(F)(F)F)c1)[C@@H]1C[C@H]1CN1CCC(c2noc3ccsc23)CC1 [compound 833130]
13,16.8,O=C([C@@H]1C[C@H]1CN1CCC(c2noc3ccsc23)CC1)N1CCN(CCCc2ccccc2)CC1 [compound 833131]
14,108,O=C([C@@H]1C[C@H]1CN1CCC(c2noc3ccsc23)CC1)N1CCN(Cc2ccc(F)cc2)CC1 [compound 833132]
15,114,COc1ccc(CN2CCN(C(=O)[C@@H]3C[C@H]3CN3CCC(c4noc5ccsc45)CC3)CC2)cc1 [compound 833133]
16,2.09,O=C(NC1CCN(Cc2ccc(C(F)(F)F)cc2)CC1)[C@@H]1C[C@H]1CN1CCC(c2noc3ccsc23)CC1 [compound 833160]
17,17.5,O=C([C@@H]1C[C@H]1CN1CCC(c2noc3ccsc23)CC1)N1CCN(CCc2cccs2)CC1 [compound 833163]
18,52.5,O=C([C@@H]1C[C@H]1CN1CCC(c2noc3ccsc23)CC1)N1CCC(n2ccnc2)CC1 [compound 833164]
19,1.72,O=C(NC1CCN(Cc2cc(F)cc(F)c2)CC1)[C@@H]1C[C@H]1CN1CCC(c2noc3ccsc23)CC1 [compound 833166]

row,Ki [nM],SMILES
1,1.57,O=C(NC1CCN(Cc2ccc(F)cc2F)CC1)[C@@H]1C[C@H]1CN1CCC(c2noc3ccsc23)CC1 [compound 833167]
2,3.11,O=C(NC1CCN(Cc2cc(F)ccc2F)CC1)[C@@H]1C[C@H]1CN1CCC(c2noc3ccsc23)CC1 [compound 833168]
3,166,COc1c(F)ccc2c(C3CCN(CCC4(C(=O)NCCCN5CCCCC5)CC4)CC3)noc12 [compound 833365]
4,65.5,CC(C)(C)OC(=O)N1CC[C@@H](CNC(=O)[C@@H]2C[C@H]2CN2CCC(c3noc4ccsc34)CC2)C1 [compound 833373]
5,24.2,CC(C)(C)OC(=O)N1CCC(CNC(=O)[C@@H]2C[C@H]2CN2CCC(c3noc4ccsc34)CC2)CC1 [compound 833375]
6,2.32,O=C(NC1CCN(Cc2ncc[nH]2)CC1)[C@@H]1C[C@H]1CN1CCC(c2noc3ccsc23)CC1 [compound 833382]
7,2.57,O=C(NC1CCNCC1)[C@@H]1C[C@H]1CN1CCC(c2noc3ccsc23)CC1 [compound 833383]
8,5.68,O=C(NC[C@@H]1CCNC1)[C@@H]1C[C@H]1CN1CCC(c2noc3ccsc23)CC1 [compound 833384]
9,36.5,O=C(NCC1CCNCC1)[C@@H]1C[C@H]1CN1CCC(c2noc3ccsc23)CC1 [compound 833386]
10,131,COc1c(F)ccc2c(C3CCN(CCC4(C(=O)N[C@H]5CC[C@H](O)CC5)CC4)CC3)noc12 [compound 833476]
11,0.962,Cc1ccc(CN2CCC(NC(=O)[C@@H]3C[C@H]3CN3CCC(c4noc5ccsc45)CC3)CC2)cc1 [compound 833482]
12,0.93,O=C(NC1CCN(CC2CC2)CC1)[C@@H]1C[C@H]1CN1CCC(c2noc3ccsc23)CC1 [compound 833483]
13,2.99,O=C(NC1CCN(Cc2cccnc2)CC1)[C@@H]1C[C@H]1CN1CCC(c2noc3ccsc23)CC1 [compound 833485]
14,41.5,O=C([C@@H]1C[C@H]1CN1CCC(c2noc3ccsc23)CC1)N1CCC(CCN2CCCC2)CC1 [compound 833509]
15,2.17,O=C(NC1CCN(Cc2ccc(F)c(F)c2)CC1)[C@@H]1C[C@H]1CN1CCN(c2csc3cc(C(F)(F)F)ccc23)CC1 [compound 833512]
16,21.7,O=C(NC1CCN(Cc2ccc(F)cc2F)CC1)[C@@H]1C[C@H]1CN1CCN(c2csc3cc(C(F)(F)F)ccc23)CC1 [compound 833516]
17,2.17,COc1ccc2c(c1)c(N1CCN(C[C@@H]3C[C@H]3C(=O)NC3CCN(Cc4ccc(F)c(F)c4)CC3)CC1)nn2C [compound 833626]
18,1.63,COc1ccc2c(c1)c(N1CCN(C[C@@H]3C[C@H]3C(=O)NC3CCN(Cc4ccc(F)cc4F)CC3)CC1)nn2C [compound 833627]
